Laboratory results taken from patent US9624214B2, “Amino-substituted imidazo[1,2-a]pyridinecarboxamides and their use” (BAYER PHARMA AKTIENGESELLSCHAFT, priority 2012, dated 2017).

Each molecule was assayed against T1, recombinant guanylate cyclase reporter cell line (Rattus norvegicus, UniProt P19686+P20595) (assay: B-2. Action on recombinant guanylate cyclase reporter cell line). Conditions: MEC = minimal effective concentration; in some cases mean values from individual determinations.
T1 construct: expressed in transfected cells
T1 sequence (P20595 1-619): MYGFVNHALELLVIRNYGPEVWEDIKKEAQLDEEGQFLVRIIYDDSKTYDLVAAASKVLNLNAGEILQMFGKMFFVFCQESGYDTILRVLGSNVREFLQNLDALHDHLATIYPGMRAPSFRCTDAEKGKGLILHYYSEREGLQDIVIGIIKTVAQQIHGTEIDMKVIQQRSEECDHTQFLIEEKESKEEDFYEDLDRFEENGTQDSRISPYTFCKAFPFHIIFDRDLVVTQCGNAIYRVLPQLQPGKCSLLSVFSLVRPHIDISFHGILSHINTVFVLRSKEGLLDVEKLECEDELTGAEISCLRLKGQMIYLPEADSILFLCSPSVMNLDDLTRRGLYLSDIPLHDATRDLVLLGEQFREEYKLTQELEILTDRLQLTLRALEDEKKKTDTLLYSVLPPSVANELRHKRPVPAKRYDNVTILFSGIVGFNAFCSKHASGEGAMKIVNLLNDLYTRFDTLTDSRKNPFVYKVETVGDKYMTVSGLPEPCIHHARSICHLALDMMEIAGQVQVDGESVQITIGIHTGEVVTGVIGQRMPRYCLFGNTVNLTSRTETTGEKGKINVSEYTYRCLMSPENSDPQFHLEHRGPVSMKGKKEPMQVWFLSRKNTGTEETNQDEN
T1 sequence (P19686 1-690): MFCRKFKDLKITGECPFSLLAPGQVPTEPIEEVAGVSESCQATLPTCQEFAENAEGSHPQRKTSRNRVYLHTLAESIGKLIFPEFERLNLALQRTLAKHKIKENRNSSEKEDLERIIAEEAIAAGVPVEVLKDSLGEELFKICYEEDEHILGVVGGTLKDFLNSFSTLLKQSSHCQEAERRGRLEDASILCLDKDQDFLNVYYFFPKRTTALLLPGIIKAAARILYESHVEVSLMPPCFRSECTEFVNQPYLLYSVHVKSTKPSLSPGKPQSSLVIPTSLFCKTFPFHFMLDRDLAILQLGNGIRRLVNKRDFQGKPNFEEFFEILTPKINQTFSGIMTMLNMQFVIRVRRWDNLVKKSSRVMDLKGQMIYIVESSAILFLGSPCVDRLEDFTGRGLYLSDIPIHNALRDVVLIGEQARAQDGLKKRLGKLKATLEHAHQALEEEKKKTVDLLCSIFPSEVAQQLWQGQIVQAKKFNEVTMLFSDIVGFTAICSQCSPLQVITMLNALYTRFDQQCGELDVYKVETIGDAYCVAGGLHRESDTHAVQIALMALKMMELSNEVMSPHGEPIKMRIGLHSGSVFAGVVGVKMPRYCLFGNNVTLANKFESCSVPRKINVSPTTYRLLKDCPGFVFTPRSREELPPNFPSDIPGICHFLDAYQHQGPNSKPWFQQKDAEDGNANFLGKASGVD
Type: cell-based
Procedure, shortened: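 Each compound is applied to a cell line engineered with a reporter for recombinant guanylate cyclase. The minimal effective concentration is then noted, in part as a mean across separate determinations.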

| SMILES | MEC |
| --- | --- |
| Cc1nc2c(OCc3c(F)cccc3F)cc(Cl)cn2c1C(=O)NCC(N)CC(F)(F)F (racemic) [Example 147, rac-N-(2-amino-4,4,4-trifluorobutyl)-6-chloro-8-[(2,6-difluorobenzyl)oxy]-2-methylimidazo[1,2-a]pyridine-3-carboxamide] | 0.30 µM |
| Cc1nc2c(OCc3c(F)cccc3F)cccn2c1C(=O)NCC(C)(N)COCc1ccccc1 (racemic) [Example 263, rac-N-[2-amino-3-(benzyloxy)-2-methylpropyl]-8-[(2,6-difluorobenzyl)oxy]-2-methylimidazo[1,2-a]pyridine-3-carboxamide] | 1.00 µM |
| Cc1cc(OCc2c(F)cccc2F)c2nc(C)c(C(=O)NC3CCCCNC3)n2c1 (racemic) [Example 316, rac-N-(azepan-3-yl)-8-[(2,6-difluorobenzyl)oxy]-2,6-dimethylimidazo[1,2-a]pyridine-3-carboxamide] | 0.30 µM |
| Cc1nc2c(OCc3c(F)cccc3F)cccn2c1C(=O)NCCNCC(F)F [Example 169, 8-[(2,6-difluorobenzyl)oxy]-N-{2-[(2,2-difluoroethyl)amino]ethyl}-2-methylimidazo[1,2-a]pyridine-3-carboxamide] | 1.65 µM |
| Cc1nc2c(OCc3c(F)cccc3F)cccn2c1C(=O)NCCCN(C)C [Example 87, 8-[(2,6-difluorobenzyl)oxy]-N-[3-(dimethyl-amino)propyl]-2-methylimidazo[1,2-a]-pyridine-3-carboxamide] | 1.00 µM |
| Cc1cc(OCc2c(F)ccc(F)c2F)c2nc(C)c(C(=O)NCC(C)(N)CCC(F)(F)F)n2c1 (single isomer, unassigned; enantiomer a) [Example 410, ent-N-(2-amino-5,5,5-trifluoro-2-methylpentyl)-2,6-dimethyl-8-[(2,3,6-trifluorobenzyl)oxy]imidazo[1,2-a]pyridine-3-carboxamide (Enantiomer A)] | 0.10 µM |
| CCCC[C@H](CN1CCOCC1)NC(=O)c1c(C)nc2c(OCc3c(F)cccc3F)cccn12 [Example 64, ent-8-[(2,6-Difluorobenzyl)oxy]-2-methyl-N-[(2R)-1-(morpholin-4-yl)hexan-2-yl]imidazo[1,2-a]-pyridine-3-carboxamide] | 0.30 µM |
| COc1ccc(CC(C)(N)CNC(=O)c2c(C)nc3c(OCc4c(F)cccc4F)cc(C)cn23)cc1 (racemic) [Example 368, rac-N-[2-amino-3-(4-methoxyphenyl)-2-methylpropyl]-8-[(2,6-difluorobenzyl)oxy]-2,6-dimethylimidazo[1,2-a]pyridine-3-carboxamide] | 0.10 µM |
| Cc1nc2c(OCc3c(F)cccc3F)cccn2c1C(=O)NCCN1CCC(F)(F)C1 [Example 143, 8-[(2,6-difluorobenzyl)oxy]-N-[2-(3,3-difluoropyrrolidin-l-yl)ethyl]-2-methylimidazo[1,2-a]pyridine-3-carboxamide] | 0.30 µM |
| Cc1nc2c(OCc3c(F)cccc3F)cc(Cl)cn2c1C(=O)NC1CNCc2ccccc21 (single isomer, unassigned; ent-6) [Example 107, ent-6-chloro-8-[(2,6-difluorobenzyl)oxy]-2-methyl-N-(1,2,3,4-tetrahydroisoquinolin-4-yl)imidazo[1,2-a]pyridine-3-carboxamide] | 0.30 µM |
| Cc1nc2c(OCc3c(F)cccc3F)cccn2c1C(=O)NCCC(C)(C)N [Example 117, N-(3-amino-3-methylbutyl)-8-[(2,6-difluorobenzyl)oxy]-2-methylimidazo[1,2-a]-pyridine-3-carboxamide] | 1.00 µM |
| CCC(C)(N)CNC(=O)c1c(C)nc2c(OCc3c(F)ccc(OC)c3F)cc(C)cn12 (stereo not drawn) [Example 360, ent-N-(2-amino-2-methylbutyl)-8-[(2,6-difluoro-3-methoxybenzyl)oxy]-2,6-dimethylimidazo[1,2-a]pyridine-3-carboxamide] | 1.00 µM |
| Cc1nc2c(OCc3c(F)cccc3F)cccn2c1C(=O)NC1CNc2ccccc2C1 (single isomer, unassigned; ent-8) [Example 81, ent-8-[(2,6-Difluorobenzyl)oxy]-2-methyl-N-(1,2,3,4-tetrahydroquinolin-3-yl)imidazo[1,2-a]-pyridine-3-carboxamide] | 1.00 µM |
| Cc1nc2c(OCc3c(F)cccc3F)cc(Cl)cn2c1C(=O)NCCN1C[C@@H](C)O[C@@H](C)C1 [Example 158, 6-chloro-8-[(2,6-difluorobenzyl)oxy]-N-{2-[(2R,6S)-2,6-dimethylmorpholin-4-yl]ethyl}-2-methylimidazo[1,2-a]pyridine-3-carboxamide] | 0.30 µM |
| CCC(C)(CN)NC(=O)c1c(C)nc2c(OCc3c(F)ccc(F)c3F)cc(C)cn12 (stereo not drawn) [Example 315, ent-N-(1-amino-2-methylbutan-2-yl)-2,6-dimethyl-8-[(2,3,6-trifluorobenzyl)oxy]imidazo[1,2-a]pyridine-3-carboxamide] | 0.30 µM |

Continued, values first:

| MEC | SMILES |
| --- | --- |
| 1.00 µM | Cc1cc(OCc2c(F)cccc2F)c2nc(C)c(C(=O)NC(CN)c3csc4ccccc34)n2c1 (racemic) [Example 389, rac-N-[2-amino-1-(1-benzothiophen-3-yl)ethyl]-8-[(2,6-difluorobenzyl)oxy]-2,6-dimethylimidazo[1,2-a]pyridine-3-carboxamide] |
| 0.10 µM | CSCCC(CN)NC(=O)c1c(C)nc2c(OCc3c(F)cccc3F)cc(C)cn12 (racemic) [Example 391, rac-N-[1-amino-4-(methylsulfanyl)butan-2-yl]-8-[(2,6-difluorobenzyl)oxy]-2,6-dimethylimidazo[1,2-a]pyridine-3-carboxamide] |
| 0.30 µM | COCC(C)(N)CNC(=O)c1c(C)nc2c(OCc3c(F)cccc3F)cc(C)cn12 (single isomer, unassigned) [Example 199, ent-N-(2-Amino-3-methoxy-2-methylpropyl)-8-[(2,6-difluorobenzyl)oxy]-2,6-dimethylimidazo-[1,2-a]pyridine-3-carboxamide] |
| 0.65 µM | COc1ccc(CC(C)(CN)NC(=O)c2c(C)nc3c(OCc4c(F)cccc4F)cc(C)cn23)cc1 (racemic) [Example 386, rac-N-[1-amino-3-(4-methoxyphenyl)-2-methylpropan-2-yl]-8-[(2,6-difluorobenzyl)oxy]-2,6-dimethylimidazo[1,2-a]pyridine-3-carboxamide] |
| 0.03 µM | Cc1cc(OCc2c(F)cccc2F)c2nc(C)c(C(=O)NCC(C)(N)C3CC3)n2c1 (racemic) [Example 259, rac-N-(2-Amino-2-cyclopropylpropyl)-8-[(2,6-difluorobenzyl)oxy]-2,6-dimethylimidazo[1,2-a]-pyridine-3-carboxamide] |
| 0.30 µM | Cc1cc(OCc2c(F)cccc2F)c2nc(C)c(C(=O)NCC3CS(=O)(=O)CCN3)n2c1 (racemic) [Example 414, rac-8-[(2,6-difluorobenzyl)oxy]-N-[(1,1-dioxidothiomorpholin-3-yl)methyl]-2,6-dimethylimidazo[1,2-a]pyridine-3-carboxamide] |
| 1.00 µM | Cc1cc(OCc2c(F)cccc2F)c2nc(C)c(C(=O)NC3CC(N)C3)n2c1 (mixture of isomers) [Example 334, N-(3-aminocyclobutyl)-8-[(2,6-difluorobenzyl)oxy]-2,6-dimethylimidazo[1,2-a]pyridine-3-carboxamide (cis/trans Mixture)] |
| 0.10 µM | Cc1cc(OCc2c(F)cccc2F)c2nc(C)c(C(=O)NCC(C)(N)CC(C)C)n2c1 (racemic) [Example 218, rac-N-(2-Amino-2,4-dimethylpentyl)-8-[(2,6-difluorobenzyl)oxy]-2,6-dimethylimidazo[1,2-a]-pyridine-3-carboxamide] |
| 1.00 µM | CCCc1nc2c(OCc3c(F)cccc3F)cc(C)cn2c1C(=O)NCC(C)(N)CC (stereo not drawn) [Example 327, ent-N-(2-amino-2-methylbutyl)-8-[(2,6-difluorobenzyl)oxy]-6-methyl-2-propylimidazo[1,2-a]pyridine-3-carboxamide] |
